Marks after values point to notes of the source that are not given here.
Key:
[1] = test system: Capan-1 human pancreatic cancer cell line; details: Capan-1 in vitro; cited from earlier work
V-ATPase [2] = molecular target: T1, V-ATPase (Homo sapiens, UniProt P27449); details: binding to V-ATPase; Drose and Altendorf, 1997; cited from earlier work
[3] = subcutaneous, doses smaller than 1 mg/kg/day, cited from earlier work
[4] = test system: acidic vesicular organelles (AVO) in MCF-7 cells; assay: Mean red/green fluorescence ratio in acridine orange stained cells by flow cytometry; assay type: cell-based, human; details: 500 nM bafilomycin A1 30 minutes prior to acridine orange
Experimental: bFGF was added to cultures of MCF-7 cells at 10 ng/ml for 48 hours. TNF was added at 2.3 nM for 48 hours. PMA was added for 1 hour at a concentration of 30 nM, followed by rinsing of the cells and incubation for an additional 48 hours.
Cell staining was performed according to standard techniques (Arvan et al., 1984, J. Bio. Chem. 259:13567-13572; Mains and May, 1988, J. Biol. Chem. 263:7887-7894; Traganos and Darzynkiewicz, Methods in Cell Biology 41:185-194, Academic Press). Acridine orange (Polysciences, Warrington, Pa.) was added to a final concentration of 1 μg/ml for 15 minutes. Bafilomycin A1 (Sigma Chemical Co., St. Louis, Mo.) was dissolved in DMSO and added to the cells 30 minutes prior to the addition of acridine orange. LysoSensor Blue DND-167 (Molecular Probes, Eugene, Oreg.) at a final concentration of 10 μM was added for 8 minutes. Pictures were obtained with a fluorescence microscope (Olympus BH-2 RFCA), equipped with a mercury-100 W lamp, 490 nm band pass blue excitation filters, 500 nm dichroic mirror and a 515 nm long pass barrier filter. Images of control and irradiated cells were recorded on Kodak Elite II 100 ASA film for color slides by 4 seconds exposure.
In acridine orange stained cells the cytoplasm and nucleolus fluoresce bright green and dim red, while acidic compartments fluoresce bright red (Mains and May, 1988, J. Biol. Chem. 263:7887-7894; Traganos and Darzynkiewicz, Methods in Cell Biology Vol. 41, pp. 185-194, Academic Press). The intensity of the red fluorescence is proportional to the degree of acidity and/or the volume of the cellular acidic compartment. Therefore, by comparing the mean red/green fluorescence ratio within different cell populations, a change in the degree of acidity and/or the fractional volume of the cellular acidic compartment could be measured. Cells were stained with acridine orange for […], removed from the plate with trypsin-EDTA and collected in phenol red-free growth medium. Green (510-530 nm) and red (>650 nm) Fluoresence emission from 10,000 cells illuminated with blue (488 nm) excitation light was measured with a FACSCalibur from Becton Dickinson (San Jose, Calif.) using CellQuest software. The red to green fluorescence ratio for individual cells was calculated using FlowJo software (TREE STAR, Inc., San Carlos, Calif.). To control for possible effect of trypsinization on the measured red to green fluorescence ratio, the ratios were compared by flow cytometry with those obtained with a Laser Scanning Microscope (LSM510 from Zeiss). Stained cells, grown on cover glass, were illuminated with a 488 nm argon laser beam. The red (>650 nm) to green (505-545 nm) fluorescence ratio of an entire image was obtained using software LSM 510 version 2.01 SP2. These measurements yielded similar results to those obtained with flow cytometry. All determinations of red to green fluorescence ratio reported in this section were obtained via flow cytometry.

[5] = cited from earlier work
V-ATPase [6] = molecular target: T1, V-ATPase; details: Gagliardi et al., 1999; cited from earlier work
[7] = test system: MCF-7 (human breast adenocarcinoma); assay: Clonogenic survival (surviving fraction) of MCF-7 cells after radiation or chemotherapeutic agent; assay type: cell-based
F and P-type ATPases = details: cited from earlier work
[8] = test system: DNA of irradiated MCF-7 cells; assay: DNA fragmentation by pulse field gel electrophoresis (PFGE); assay type: cell-based, human; details: bafilomycin A1 (4 nM) added two days following 10 Gy, for 24 hours
Experimental: FIG. 6. Bafilomycin A1 enhances DNA fragmentation in irradiated cells: Cells were irradiated 48 hours post-plating and bafilomycin A1 (4 nM) was added 48 hours following irradiation, for the duration of 24 hours, from concentrated stock solution at dimethylsulfoxide (DMSO) to a final concentration of 4 nM. Control cells received the vehicle alone. Cells were harvested 72 hours following irradiation. Plug preparation and resolution of DNA was conducted according to Gilles et al. (2000, Blood 95:2930-2936). M-DNA size standard, lambda 50 kb ladder. A-Unirradiated controls. B-Cells irradiated with 10 Gy. C-Unirradiated cells incubated with 4 nM bafilomycin A1. D-Cells irradiated with 10 Gy and incubated with 4 nM bafilomycin A1. Window of DNA resolution was 20 kb-1000 kb. Arrow 1 points to sample origin. Arrow 2 points to zone of no resolution.
DNA extraction and electrophoresis on agarose gel was carried out according to Bose et al., 1995, Cell 82:405-414. DNA preparation and resolution with pulse field gel electrophoresis (PFGE) was conducted as described in Gilles et al., 2000, Blood 95:2930-2936 utilizing the CHEF Mapper (Bio-Rad, Richmond, Calif.). DNA strand breaks were assayed by the TUNEL method and analyzed by flow cytometry (Haimovitz-Friedman, 1994, J. Exp. Med. 180:525-535).

Capan-1 xenograft tumor = details: subcutaneous, doses smaller than 1 mg/kg/day; cited from earlier work
[9] = subcutaneous, 1.4 mol/kg/day for 14 days

T1 sequence (P27449 whole entry): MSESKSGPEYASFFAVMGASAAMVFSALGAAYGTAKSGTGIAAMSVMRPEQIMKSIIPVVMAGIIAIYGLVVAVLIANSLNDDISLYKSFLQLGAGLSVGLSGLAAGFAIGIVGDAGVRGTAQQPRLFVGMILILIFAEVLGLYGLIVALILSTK

bafilomycin A1
concentrations reported to induce apoptosis [1]: greater than 10 nM | Kd (V-ATPase [2]): 10 nM | histological examination of organs ([3]; four weeks treatment): did not affect the liver, pancreas, small intestine, kidney or lung | growth of nude mice ([3]; up to four weeks, Ohta et al., 1998): did not affect the growth | radiation-induced increase of mean red/green fluorescence ratio ([4]; 24 hours following 10 Gy): inhibited its radiation-induced increase | mean red/green fluorescence ratio in unirradiated cells ([4]; unirradiated): decreased | toxicity when injected intravenously ([5]; intravenous, Keeling, 1997): toxic | bone readsorption [5, 9]: increased bone readsorption | toxicity [5, 9]: non-toxic | tolerability when administered subcutaneously ([5]; subcutaneous): tolerated | concentration range that inhibits V-H+-ATPase activity without affecting F or P-type ATPases (V-ATPase [6]): nM range | survival, column Adriamycin ([7]; Table 15, Bafilomycin 2 nM + 100 nM adriamycin, average of two plates): (0.56; 0.58)0.57* | cell survival, Bafilomycin A1 (2 nM) ([7]; Table 18, Bafilomycin A1 2 nM, Etoposide 0 μg/ml): 0.9 ± 0.09 | decrease of survival in the presence of etoposide ([7]; bafilomycin 2 nM, etoposide 0.05 μg/ml, Table 18): 54% | concentration range at which F and P-type ATPases activities are affected (F and P-type ATPases): μM range | DNA cleavage into large fragments (20-1000 kb) [8]: dramatically increased DNA clevage into large fragments | effect on Capan-1 xenograft tumor (Capan-1 xenograft tumor): apoptotic death of Capan-1 cells in their xenograft tumor and overall shrinkage of the tumors
